Measured values: patent US20190031676A1, “ANTIBACTERIAL ANNULATED PYRROLIDIN-2-ONE DERIVATIVES” (priority 2015, published 2019)
Converted amounts (≈) assume the structure as drawn.

Key:
Test in all cases: Bacterial growth minimal inhibitory concentration (microdilution, cation-adjusted Mueller-Hinton Broth)
Assay type in all cases: cell-based
K. pneumoniae A-651 = conditions: multiply-resistant strain (in particular quinolone-resistant); for MIC: Klebsiella pneumoniae, A651
Experimental: (§1) Minimal Inhibitory Concentrations (MICs; mg/L) were determined in cation-adjusted Mueller-Hinton Broth by a microdilution method following the description given in “Methods for Dilution Antimicrobial Susceptibility Tests for Bacteria that grow Aerobically”, Approved standard, 7th ed., Clinical and Laboratory Standards Institute (CLSI) Document M7-A7, Wayne, Pa., USA (2006).
(§2) All Example compounds were tested against several Gram-positive and Gram-negative bacteria. […] K. pneumoniae A-651 is a multiply-resistant strain (in particular quinolone-resistant), while E. coli ATCC25922 and P. aeruginosa ATCC27853 are quinolone-sensitive strains.

E. coli ATCC25922 = conditions: quinolone-sensitive strain; for MIC: Escherichia coli, ATCC25922
Experimental: as §1, §2

P. aeruginosa ATCC27853 = conditions: quinolone-sensitive strain; for MIC: Pseudomonas aeruginosa, ATCC27853
Experimental: as §1, §2

| SMILES | MIC (K. pneumoniae A-651) | MIC (E. coli ATCC25922) | MIC (P. aeruginosa ATCC27853) | MIC for K. Pneumoniae A-651 (K. pneumoniae A-651) | MIC for E. coli ATCC25922 (E. coli ATCC25922) | MIC for P. aeruginosa ATCC27853 (P. aeruginosa ATCC27853) |
| --- | --- | --- | --- | --- | --- | --- |
| CC(C)(CO)c1ccc(C#Cc2cc3c(s2)C(=O)N(CCC(C)(C(=O)NO)S(C)(=O)=O)C3)cc1 (racemic) [Reference Example 1, (2RS)—N-hydroxy-4-(2-((4-(1-hydroxy-2-methylpropan-2-yl)phenyl)ethynyl)-6-oxo-4,6-dihydro-5H-thieno[2,3-c]pyrrol-5-yl)-2-methyl-2-(methylsulfonyl)butanamide] | 1 µg/mL (≈ 1.98 µM) | 0.25 µg/mL (≈ 0.495 µM) | 2 µg/mL (≈ 3.96 µM) | – | – | – |
| CC(CCN1Cc2cc(C#CC#CC3(CO)CC3)sc2C1=O)(C(=O)NO)S(C)(=O)=O (racemic) [Reference Example 2, (2RS)—N-hydroxy-4-(2-((1-(hydroxymethyl)cyclopropyl)buta-1,3-diyn-1-yl)-6-oxo-4,6-dihydro-5H-thieno[2,3-c]pyrrol-5-yl)-2-methyl-2-(methylsulfonyl)butanamide] | 2 µg/mL (≈ 4.44 µM) | 1 µg/mL (≈ 2.22 µM) | 2 µg/mL (≈ 4.44 µM) | – | – | – |
| C[C@@](CCN1Cc2cc(C#CC#CC3CN([C@@H]4CCOC4)C3)sc2C1=O)(C(=O)NO)S(C)(=O)=O (single isomer, unassigned) [Example 37] | 0.5 µg/mL (≈ 0.989 µM) | 0.5 µg/mL (≈ 0.989 µM) | 1 µg/mL (≈ 1.98 µM) | – | – | – |
| C[C@@](CCN1Cc2cc(C#CC#CC3(N)CC3)sc2C1=O)(C(=O)NO)S(C)(=O)=O [Example 3, (2R)-4-(2-((1-aminocyclopropyl)buta-1,3-diyn-1-yl)-6-oxo-4,6-dihydro-5H-thieno[2,3-c]pyrrol-5-yl)-N-hydroxy-2-methyl-2-(methylsulfonyl)butanamide] | 0.5 µg/mL (≈ 1.15 µM) | 0.25 µg/mL (≈ 0.574 µM) | 1 µg/mL (≈ 2.3 µM) | – | – | – |
| C[C@@](CCN1Cc2cc(C#CC#CCOC(=O)N3CC(O)C3)sc2C1=O)(C(=O)NO)S(C)(=O)=O [Example 6, (3R)-5-(5-(4-(hydroxyamino)-3-methyl-3-(methylsulfonyl)-4-oxobutyl)-6-oxo-5,6-dihydro-4H-thieno[2,3-c]pyrrol-2-yl)penta-2,4-diyn-1-yl 3-hydroxyazetidine-1-carboxylate] | 1 µg/mL (≈ 1.96 µM) | 1 µg/mL (≈ 1.96 µM) | 2 µg/mL (≈ 3.92 µM) | – | – | – |
| CNC1(C#CC#Cc2ccc3c(c2)CN(CC[C@](C)(C(=O)NO)S(C)(=O)=O)C3=O)CC1 [Example 7, (2R)—N-hydroxy-2-methyl-4-(5-((1-(methylamino)cyclopropyl)buta-1,3-diyn-1-yl)-1-oxoisoindolin-2-yl)-2-(methylsulfonyl)butanamide] | 1 µg/mL (≈ 2.25 µM) | 0.25 µg/mL (≈ 0.564 µM) | 2 µg/mL (≈ 4.51 µM) | – | – | – |
| CN1CC(C#CC#Cc2ccc3c(c2)CN(CC[C@](C)(C(=O)NO)S(C)(=O)=O)C3=O)C1 [Example 8, (2R)—N-hydroxy-2-methyl-4-(5-((1-methylazetidin-3-yl)buta-1,3-diyn-1-yl)-1-oxoisoindolin-2-yl)-2-(methylsulfonyl)butanamide] | 2 µg/mL (≈ 4.51 µM) | 1 µg/mL (≈ 2.25 µM) | 1 µg/mL (≈ 2.25 µM) | – | – | – |
| C[C@@](CCN1Cc2cc(C#CC#CCOC(=O)N3CC(O)C3)ccc2C1=O)(C(=O)NO)S(C)(=O)=O [Example 9, (3R)-5-(2-(4-(hydroxyamino)-3-methyl-3-(methylsulfonyl)-4-oxobutyl)-1-oxoisoindolin-5-yl)penta-2,4-diyn-1-yl 3-hydroxyazetidine-1-carboxylate] | 1 µg/mL (≈ 1.99 µM) | 1 µg/mL (≈ 1.99 µM) | 2 µg/mL (≈ 3.97 µM) | – | – | – |
| CN1CC(C#CC#Cc2cc3c(s2)C(=O)N(CC[C@](C)(C(=O)NO)S(C)(=O)=O)C3)C1 [Example 11, (2R)—N-hydroxy-2-methyl-4-(2-((1-methylazetidin-3-yl)buta-1,3-diyn-1-yl)-6-oxo-4,6-dihydro-5H-thieno[2,3-c]pyrrol-5-yl)-2-(methylsulfonyl)butanamide] | 1 µg/mL (≈ 2.22 µM) | 0.25 µg/mL (≈ 0.556 µM) | 0.5 µg/mL (≈ 1.11 µM) | – | – | – |
| C[C@@](CCN1Cc2cc(C#CC#CC3(N)CC3)ccc2C1=O)(C(=O)NO)S(C)(=O)=O [Example 13, (2R)-4-(5-((1-aminocyclopropyl)buta-1,3-diyn-1-yl)-1-oxoisoindolin-2-yl)-N-hydroxy-2-methyl-2-(methylsulfonyl)butanamide] | 1 µg/mL (≈ 2.33 µM) | 0.5 µg/mL (≈ 1.16 µM) | 1 µg/mL (≈ 2.33 µM) | – | – | – |
| C[C@@](CCN1Cc2cc(C#CC#CC3CN(C4COC4)C3)sc2C1=O)(C(=O)NO)S(C)(=O)=O [Example 15, (2R)—N-hydroxy-2-methyl-2-(methylsulfonyl)-4-(2-((1-(oxetan-3-yl)azetidin-3-yl)buta-1,3-diyn-1-yl)-6-oxo-4,6-dihydro-5H-thieno[2,3-c]pyrrol-5-yl)butanamide] | 4 µg/mL (≈ 8.14 µM) | 0.5 µg/mL (≈ 1.02 µM) | 4 µg/mL (≈ 8.14 µM) | – | – | – |
| C[C@@](CCN1Cc2cc(C#CC#CC3CN(CCO)C3)sc2C1=O)(C(=O)NO)S(C)(=O)=O [Example 17, (2R)—N-hydroxy-4-(2-((1-(2-hydroxyethyl)azetidin-3-yl)buta-1,3-diyn-1-yl)-6-oxo-4,6-dihydro-5H-thieno[2,3-c]pyrrol-5-yl)-2-methyl-2-(methylsulfonyl)butanamide] | 2 µg/mL (≈ 4.17 µM) | 0.5 µg/mL (≈ 1.04 µM) | 1 µg/mL (≈ 2.09 µM) | – | – | – |
| C[C@@](CCN1Cc2cc(C#CC#C[C@H]3C[C@]3(F)CO)ccc2C1=O)(C(=O)NO)S(C)(=O)=O [Example 18, (2R)-4-(5-(((1R,2R)-2-fluoro-2-(hydroxymethyl)cyclopropyl)buta-1,3-diyn-1-yl)-1-oxoisoindolin-2-yl)-N-hydroxy-2-methyl-2-(methylsulfonyl)butanamide] | 2 µg/mL (≈ 4.32 µM) | 0.5 µg/mL (≈ 1.08 µM) | 1 µg/mL (≈ 2.16 µM) | – | – | – |
| CN(C)CC(=O)OC[C@H]1C[C@@H]1C#CC#Cc1cc2c(s1)C(=O)N(CC[C@](C)(C(=O)NO)S(C)(=O)=O)C2 [Example 20, ((1S,2S)-2-((5-((3R)-4-(hydroxyamino)-3-methyl-3-(methylsulfonyl)-4-oxobutyl)-6-oxo-5,6-dihydro-4H-thieno[2,3-c]pyrrol-2-yl)buta-1,3-diyn-1-yl)cyclopropyl)methyl dimethylglycinate] | 0.25 µg/mL (≈ 0.467 µM) | 0.125 µg/mL (≈ 0.233 µM) | 1 µg/mL (≈ 1.87 µM) | – | – | – |
| C[C@@](CCN1Cc2cc(C#CC#C[C@@H]3C[C@@H](O)[C@@H](O)C3)sc2C1=O)(C(=O)NO)S(C)(=O)=O [Example 21, (2R)-4-(2-(((1S,3R,4S)-3,4-dihydroxycyclopentyl)buta-1,3-diyn-1-yl)-6-oxo-4,6-dihydro-5H-thieno[2,3-c]pyrrol-5-yl)-N-hydroxy-2-methyl-2-(methylsulfonyl)butanamide] | – | – | – | 2 mg/L | 0.5 mg/L | 1 mg/L |
| C[C@@](CCN1Cc2cc(C#CC#C[C@H]3C[C@@H]3[C@@H](O)CO)sc2C1=O)(C(=O)NO)S(C)(=O)=O [Example 22, (2R)-4-(2-(((1S,2S)-2-((2R)-1,2-dihydroxyethyl)cyclopropyl)buta-1,3-diyn-1-yl)-6-oxo-4,6-dihydro-5H-thieno[2,3-c]pyrrol-5-yl)-N-hydroxy-2-methyl-2-(methylsulfonyl)butanamide] | – | – | – | 1 mg/L | 0.5 mg/L | 1 mg/L |

Further lines, results first:

| MIC (K. pneumoniae A-651) | MIC (E. coli ATCC25922) | MIC (P. aeruginosa ATCC27853) | MIC for K. Pneumoniae A-651 (K. pneumoniae A-651) | MIC for E. coli ATCC25922 (E. coli ATCC25922) | MIC for P. aeruginosa ATCC27853 (P. aeruginosa ATCC27853) | SMILES |
| --- | --- | --- | --- | --- | --- | --- |
| 0.25 µg/mL (≈ 0.555 µM) | 0.125 µg/mL (≈ 0.277 µM) | 0.5 µg/mL (≈ 1.11 µM) | – | – | – | C[C@@](CCN1Cc2cc(C#CC#C[C@@H]3C[C@H]3CO)sc2C1=O)(C(=O)NO)S(C)(=O)=O (single isomer, unassigned) [Example 1] |
| 0.25 µg/mL (≈ 0.494 µM) | 0.25 µg/mL (≈ 0.494 µM) | 1 µg/mL (≈ 1.98 µM) | – | – | – | C[C@@](CCN1Cc2cc(C#CC#CC3CN([C@H]4CCOC4)C3)sc2C1=O)(C(=O)NO)S(C)(=O)=O (single isomer, unassigned) [Example 38] |
| 0.25 µg/mL (≈ 0.548 µM) | ≤ 0.063 µg/mL | 2 µg/mL (≈ 4.38 µM) | – | – | – | COc1ccc(-c2cc3c(s2)C(=O)N(CC[C@](C)(C(=O)NO)S(C)(=O)=O)C3)c(F)c1 [Example 2, (2R)-4-(2-(2-fluoro-4-methoxyphenyl)-6-oxo-4,6-dihydro-5H-thieno[2,3-c]pyrrol-5-yl)-N-hydroxy-2-methyl-2-(methylsulfonyl)butanamide] |
| 0.25 µg/mL (≈ 0.556 µM) | 0.125 µg/mL (≈ 0.278 µM) | 1 µg/mL (≈ 2.22 µM) | – | – | – | CNC1(C#CC#Cc2cc3c(s2)C(=O)N(CC[C@](C)(C(=O)NO)S(C)(=O)=O)C3)CC1 [Example 5, (2R)—N-hydroxy-2-methyl-4-(2-((1-(methylamino)cyclopropyl)buta-1,3-diyn-1-yl)-6-oxo-4,6-dihydro-5H-thieno[2,3-c]pyrrol-5-yl)-2-(methylsulfonyl)butanamide] |
| 0.063 µg/mL (≈ 0.14 µM) | 0.125 µg/mL (≈ 0.277 µM) | 8 µg/mL (≈ 17.8 µM) | – | – | – | COc1ccc(-c2ccc3c(c2)CN(CC[C@](C)(C(=O)NO)S(C)(=O)=O)C3=O)c(F)c1 [Example 10, (2R)-4-(5-(2-fluoro-4-methoxyphenyl)-1-oxoisoindolin-2-yl)-N-hydroxy-2-methyl-2-(methylsulfonyl)butanamide] |
| 0.25 µg/mL (≈ 0.562 µM) | 0.031 µg/mL (≈ 0.0697 µM) | 2 µg/mL (≈ 4.5 µM) | – | – | – | C[C@@](CCN1Cc2cc(C#CC#CC3(CO)CC3)ccc2C1=O)(C(=O)NO)S(C)(=O)=O [Example 12, (2R)—N-hydroxy-4-(5-((1-(hydroxymethyl)cyclopropyl)buta-1,3-diyn-1-yl)-1-oxoisoindolin-2-yl)-2-methyl-2-(methylsulfonyl)butanamide] |
| 0.25 µg/mL (≈ 0.481 µM) | 0.031 µg/mL (≈ 0.0597 µM) | 2 µg/mL (≈ 3.85 µM) | – | – | – | C[C@@](CCN1Cc2cc(C#Cc3ccc(CN4CC(F)C4)cc3)sc2C1=O)(C(=O)NO)S(C)(=O)=O [Example 14, (2R)-4-(2-((4-((3-fluoroazetidin-1-yl)methyl)phenyl)ethynyl)-6-oxo-4,6-dihydro-5H-thieno[2,3-c]pyrrol-5-yl)-N-hydroxy-2-methyl-2-(methylsulfonyl)butanamide] |
| 0.25 µg/mL (≈ 0.555 µM) | 0.125 µg/mL (≈ 0.277 µM) | 0.5 µg/mL (≈ 1.11 µM) | – | – | – | C[C@@](CCN1Cc2cc(C#CC#C[C@H]3C[C@@H]3CO)sc2C1=O)(C(=O)NO)S(C)(=O)=O [Example 19, (2R)—N-hydroxy-4-(2-(((1S,2S)-2-(hydroxymethyl)cyclopropyl)buta-1,3-diyn-1-yl)-6-oxo-4,6-dihydro-5H-thieno[2,3-c]pyrrol-5-yl)-2-methyl-2-(methylsulfonyl)butanamide] |
